Results on twelve compounds are retold here after US20250353841A1 (BIOGEN MA INC., priority 2022, published 2025).

pIC50: −log10 of the molar value.

The subject of the first test is mHTT protein.
Experiment: not given
The following applies: blood samples from SMA Type I patients dosed orally; cited from earlier work.
For the compound `CC1(C)CC(Oc2ccc(-c3ccc(-c4cn[nH]c4)cc3O)nn2)CC(C)(C)N1` [branaplam], the mHTT protein levels result is reported as “lowers mHTT protein levels”.

For another test, the system named is mHTT protein.
Experiment: not given
The note with it: HD mouse model; cited from earlier work.
Regarding `CC1(C)CC(Oc2ccc(-c3ccc(-c4cn[nH]c4)cc3O)nn2)CC(C)(C)N1` [branaplam], the mHTT protein levels entry is given as “lowers mHTT protein levels”.

In the next test the test system is mHTT protein.
Experiment: not given
The following applies: HD patient cells; cited from earlier work.
For `CC1(C)CC(Oc2ccc(-c3ccc(-c4cn[nH]c4)cc3O)nn2)CC(C)(C)N1` [branaplam], the mHTT protein levels entry was “lowers mHTT protein levels”.

In the next test the test system is mutant Huntington (HTT) protein. As to the kind of experiment: HTT Mutant HTRF iPSC assay (mHTT protein lowering). It is filed as cell-based. The following applies: human iPSC derived from a HTT patient with a poly-Q49 mutation.
`Cc1nc2cc(-c3cc(F)c4nc(C5CCNCC5)cn4c3)ccc2[nH]1` [Compound 50, 5-(8-fluoro-2-(piperidin-4-yl)imidazo[1,2-a]pyridin-6-yl)-2-methyl-1H-benzo[d]imidazole]: the pIC50 – broadly, the IC50 on a negative log10 scale, so that one unit is a factor of ten – is 5.05 to 6.00.

For `Cn1cc2cc(-c3cc(F)c4nc(C5CCNCC5)cn4c3)ccc2n1` [Compound 11, 5-(8-fluoro-2-(piperidin-4-yl)imidazo[1,2-a]pyridin-6-yl)-2-methyl-2H-indazole], the pIC50 was 6.00 to 7.00.

In turn, `Cc1cn2nc(-c3cc(Cl)c4nc(C5CCNCC5)cn4c3)cc(C)c2n1` [Compound 556, 6-(8-chloro-2-(piperidin-4-yl)imidazo[1,2-a]pyridin-6-yl)-2,8-dimethylimidazo[1,2-b]pyridazine] had a pIC50 of 6.00 to 7.00.

For the compound `Cc1cc(-c2cc(F)c3nc(C4CCNCC4)cn3c2)nn2cnnc12` [Compound 105, 6-(8-fluoro-2-(piperidin-4-yl)imidazo[1,2-a]pyridin-6-yl)-8-methyl-[1,2,4]triazolo[4,3-b]pyridazine], the pIC50 was 5.05 to 6.00.

For the compound `Cc1cc2nc(-c3cc(F)c4nn(C5CCN(C)CC5)cc4c3)cc(C)n2n1` [Compound 360, 5-(7-fluoro-2-(1-methylpiperidin-4-yl)-2H-indazol-5-yl)-2,7-dimethylpyrazolo[1,5-a]pyrimidine], the pIC50 was 6.00 to 7.00.

Take `Cc1cn2nc(-c3cc(F)c4nc(C5CCN(CC(C)(C)C)CC5)nn4c3)cc(C)c2n1` [Compound 436, 6-(2,8-dimethylimidazo[1,2-b]pyridazin-6-yl)-8-fluoro-2-(1-neopentylpiperidin-4-yl)-[1,2,4]triazolo[1,5-a]pyridine]: the pIC50 was 6.00 to 7.00.

`Cc1cn2nc(-c3cc(F)c4nc(NC5CCN(C6CCC6)CC5)oc4c3)cc(C)c2n1` [Compound 478, N-(1-cyclobutylpiperidin-4-yl)-6-(2,8-dimethylimidazo[1,2-b]pyridazin-6-yl)-4-fluorobenzo[d]oxazol-2-amine] gave a pIC50 above 7.00.

`Cc1cn2nc(-c3cc(F)c4nc([C@H]5CCC6(CCNCC6)C5)cn4c3)cc(C)c2n1` (single isomer, unassigned) [Compound 114] had a pIC50 above 7.00.

The compound `Cn1cc2cc(-c3cc(F)c4nc([C@@H]5CNCCO5)cn4c3)cc(F)c2n1` (single isomer, unassigned) [Compound 71] gave a pIC50 of 6.00 to 7.00.

Regarding `Cc1cn2nc(-c3cc(F)c4nc(N5CCNCC5)cn4c3)cc(C)c2n1` [Compound 127, 6-(8-fluoro-2-piperazin-1-yl-imidazo[1,2-a]pyridin-6-yl)-2,8-dimethyl-imidazo[1,2-b]pyridazine], the pIC50 was 5.05 to 6.00.

Regarding `Cc1cn2nc(-c3cc(F)c4nc(C(=O)NC[C@H]5CCCCN5C)cn4c3)cc(C)c2n1` [Compound 335, 6-(2,8-dimethylimidazo[1,2-b]pyridazin-6-yl)-8-fluoro-N-[[(2R)-1-methyl-2-piperidyl]methyl]imidazo[1,2-a]pyridine-2-carboxamide], the pIC50 was 6.00 to 7.00.
